Data taken from patent US20170239310A1, “Composition for Promoting Anti-Diabetic and Anti-Obesity Effects, Comprising Herbal Extract” (DONGGUK UNIVERSITY GYEONGJU CAMPUS INDUSTRY- ACADEMY …, priority 2014, published 2017).
Entries after “also recorded” stand apart in the source; their conditions may differ.

Key:
[1] = DPPH free radical scavenging activity; assay type: biochemical; conditions: 300 μM DPPH, 37° C., 30 minutes
Description: 40 μl of a sample was mixed with 760 μl of 300 μM 2,2-diphenyl-1-picrylhydrazyl (DPPH) and the mixture was incubated at 37° C. for 30 minutes, and then the mixture was aliquoted to each well of a 96-well plate in triplicate and absorbance was measured at 515 nm using a microplate reader. BHT was used as a positive control group.

[2] = test system: IL-6; assay: IL-6 gene expression (real-time PCR) in RAW 264.7 cells; conditions: normal group (N) 1.11
Description: (§3) To identify the gene expression levels of XBP-1, TNF-α, and IL-6, real-time PCR was performed according to the same method as described in Example 3 except primers.

[3] = test system: AMPK-α; assay: AMPK-α gene expression (real-time PCR) in RAW 264.7 cells; assay type: cell-based; conditions: normal group (N) 0.80
Description: (§1) Total RNA was separated and purified using TRIsure (Bioline, USA) according to a protocol. 1 μg of total RNAs was subjected to a reverse transcription reaction using a cDNA synthesis kit (Sprint™RT Complete Oligo-(dT)18, Clontech, Mountain View, Calif., USA) according to a protocol for synthesizing first strand cDNA. The produced RT-PCR sample was subjected to real-time PCR reaction, in which the final reaction volume was adjusted to 20 μl and Light Cycler-Fast Start DNA Master SYBR Green (Roche Applied Science, Indianapolis, Ind., USA) and a Light Cycler instrument (Roche Applied Science) were used.
(§2) PCR amplification was performed according to PCR steps, consisting of a pre-incubation step at 95° C. for 10 minutes and 35 (for beta-actin) or 45 (for C/EBPa) cycles of amplification (denaturation at 95° C. for 10 seconds, annealing at 52° C. for 10 seconds, and extension at 72° C. for 15 seconds). Total RNA was separated and purified using TRIsure (Bioline, USA) according to a protocol. 1 μg of total RNAs was subjected to a reverse transcription reaction using a cDNA synthesis kit (Sprint™RT Complete Oligo-(dT)18, Clontech, Mountain View, Calif., USA) according to a protocol for synthesizing first strand cDNA. […]

[4] = test system: XBP-1; assay: XBP-1 gene expression (real-time PCR) in RAW 264.7 cells; assay type: cell-based; conditions: normal group (N) 1.00
Description: as §3

[5] = test system: L6 rat myoblast cells; assay: Glucose uptake assay (2-NBDG); assay type: cell-based; conditions: 2-NBDG 100 μg/ml; compared to control group / metformin alone
Text: Undifferentiated L6 rat myoblast cells were differentiated into myotube cells using 2% horse serum. […] When performing measurement, apigenin, a compound that inhibits glucose uptake, was used as a control.

[6] = test system: HepG2 cells; assay: Intracellular reactive oxygen species (ROS) activity, DHR123/FACS; assay type: cell-based; conditions: 6 hours, compared to normal group / metformin alone
Description: After centrifugation at 1200 g for 5 minutes, a supernatant was discarded, and the remaining HepG2 cells were treated with 5 μg/ml of DHR123, followed by incubation at 37° C. for 30 minutes. After additional centrifugation for 5 minutes, PBS washing was performed two times and filtration was performed. Intracellular reactive oxygen species activity was measured based on the value of fluorescence intensity obtained from FACS analysis.

[7] = test system: RIN-m5F insulinoma cells; assay: Insulin secretion assay (rat insulin ELISA); assay type: cell-based; conditions: […] metformin with extract, 20 mM glucose
Description: A portion of cell culture supernatant was subjected to centrifugation at 4° C. for 10 minutes, and after centrifugation, a supernatant was collected and stored at −20° C. for further use. The amount of secreted insulin was measured using a rat insulin ELISA kit (Mercodia, Sweden), and an insulin secretion amount per gram of proteins was calculated by measuring the concentration of cellular proteins in each well.

[8] = in vivo; conditions: rat, po, 100 mg/kg
[9] = test system: OLETF/LETO rats; assay: Intraperitoneal insulin tolerance test (IPITT); assay type: in vivo, rat; conditions: metformin 100 mg/kg alone or with 200 mg/kg extract, insulin 1 U/kg IP
Description: Dietary intakes, body weights, states, and the like were checked weekly, and at 24 weeks, an IPITT was performed using blood collected from the tail veins. After 12 weeks, the rats were sacrificed under anesthesia with an intraperitoneal (IP) injection of Zoletil/Rompun, and fat, each organ sample, and serum were separated. One week prior to the end of the experiments, OLETF/LETO rats were fasted for 15 hours and then administered with 1 U/kg of insulin by intraperitoneal (IP) injection, and then measurement of blood sugar levels was performed using an Accu-Chek blood glucose meter (Roche, USA) on blood samples, which had been collected from the tail vein of each individual by bleeding a small amount of blood at 0, 30, 60, 90, and 120 minutes. The obtained values for blood sugar levels were analyzed using an area under curve (AUC), and the like.

[10] = test system: PPAR-α; assay: PPAR-α gene expression (real-time PCR) in RAW 264.7 cells; assay type: cell-based; conditions: normal group (N) 1.01
Description: as §1, §2

[11] = test system: 3T3-L1 cells; assay: Fat cell differentiation (Oil red O staining); assay type: cell-based; conditions: compared to control group / metformin alone
Description: After seeding 3T3-L1 cells into a 6-well plate at a density of 5×10^5 cells/well, the cells were cultured until reaching full confluence. The pre-existing culture medium for the cells was exchanged with DMEM (differentiation media) containing 1 μM dexamethasone, 0.5 mM IBMX, and 10 μg/ml insulin, and the cells were cultured for 48 hours and then were treated with DMEM (maturation media) containing 10 μg/ml insulin to induce differentiation. Differentiation-induced fat cells produced as a result of the process were treated with samples at various concentrations or a positive control group, and inhibitory effects on fat cell differentiation were analyzed using an Oil red O staining method, TG, and a TC assay.

[12] = test system: TNF-α; assay: TNF-α gene expression (real-time PCR) in RAW 264.7 cells; assay type: cell-based; conditions: normal group (N) 1.01
Description: as §3

[13] = test system: RAW 264.7 cells; assay: LPS-induced nitrogen monoxide (NO) generation, GRIESS reaction; assay type: cell-based; conditions: 1 μg/ml LPS, 24 hours, compared to LPS group / metformin alone
Description: To compare an anti-inflammatory function, an in vitro model of LPS-induced nitrogen monoxide (NO) generation was used in an experiment, and NO measurement was carried out using a cell supernatant based on the GRIESS reaction (Green et al., 1982). RAW 264.7 cells were seeded at a density of 1.5×10^5 cells/ml and pre-treated with samples diluted at various concentrations, and after 1 hour, the pretreated cells were treated with 1 μg/ml of lipopolysaccharide (LPS: Sigma, St Louis, Mo., USA), followed by incubation for 24 hours. 50 μl of a cell culture supernatant and 50 μl of 1% (w/v) sulfanilamide, a GRIESS reagent, were added to each well of a 96-well plate, and the 96-well plate shaded from light was incubated at room temperature for 10 minutes and then 50 μl of 0.1% (w/v) N-1-naphthylethylenediamine dissolved in 2.5% (v/v) phosphoric acid was added to each well of the 96-well plate and mixed, followed by incubation under dark conditions for 10 minutes. Absorbance was read at 540 nm using a microplate reader (Molecular Devices, CA, USA) within 30 minutes after finishing incubation. NO production was calculated using a nitric oxide standard solution.

SMILES	DPPH free radical scavenging IC50 [1]	gene expression level of IL-6 [2]	gene expression level of AMPK-α [3]	gene expression level of XBP-1 [4]	capacity of glucose uptake [5]	intracellular ROS activity [6]	amount of insulin secretion [7]	CL renal ([8]; blood and urine)	AUC(0-t) ([8]; blood)	CL/F ([8]; blood)	Cmax ([8]; blood)	Tmax ([8]; blood)	insulin resistance (IPITT, blood sugar AUC) [9]	gene expression level of PPAR-α [10]	lipid formation attributed to differentiation of 3T3-L1 preadipocytes [11]	gene expression level of TNF-α [12]	production amount of nitrogen monoxide [13]
Cc1cc(C(C)(C)C)c(O)c(C(C)(C)C)c1 [BHT]	113.85 µg/mL																
CN(C)C(=N)N=C(N)N [Metformin, metformin]		1.91	0.76	1.01	increased capacity of glucose uptake	tendency of decreasing intracellular reactive oxygen species (ROS) activity	significant changes in the amounts of insulin secretion were not observed	40.3 ± 13.8 mL/min/kg	29000 ng·h/mL	54.3 ± 15.4 mL/min/kg	7650 ± 3100 ng/mL	1.5 h	tendency to decrease; also recorded: tendency of decreasing	0.68	tendency of decreasing lipid formation	1.34	production amount of nitrogen monoxide was decreased
